Patent US20130217776A1, “Combination of a Serotonin Reuptake Inhibitor and Agomelatine” (H. Lundbeck A/S, priority 2003, published 2013)

System: serotonin in terminal areas
Test: microdialysis experiments (level of serotonin in terminal areas)
Type: in vivo
Settings: administration of agomelatine alone
Text: Administration of agomelatine alone causes no increase in serotonin levels as measured in microdialysis experiments.

## COc1ccc2cccc(CCNC(C)=O)c2c1 [agomelatine]
  serotonin levels as measured in microdialysis experiments: no increase
